Columns and labels:
[1] = tested on: HUVEC; assay: Wound healing migration assay; type: cell-based, human; settings: various concentrations; 24 hours
From the text: (§1) Cell migration is essential for ECs in angiogenesis and for cancer cells in tumor growth and metastasis. […] Cell invasion is essential for EC in angiogenesis, so we performed transwell assays to evaluate the ability of HUVEC to pass through the Matrigel and membrane barriers of the transwell in the presence of various concentrations of YLT192 or vehicle.
Figure 2 Effects of YLT192 on HUVECs proliferation, migration, invasion and tube formation. […] Cells were wounded by the pipette and then treated with various concentrations of compounds for 24 hours. Migrated cells were quantified by manual counting (50×). […] The bottom chambers of the transwells were filled with 600 μL EGM2 containing various growth factors while the top chambers were seeded with 4 × 10^4 HUVECs in EBM2 and treated with different concentrations of compounds for 24 hours. Cells invaded through the membrane were stained and quantified (100×). […] HUVECs were seeded on Matrigel layer and treated with different concentrations of compounds. HUVECs tube formation was assessed 6 hours later (50×). One representative experiment of three is shown. For (A), (B) and (C), data represent the mean ± SEM of three different experiments. Each experiment was performed in duplicate.*P < 0.05, **P < 0.01. (D) YLT192 inhibited VEGF-induced phosphorylation of VEGFR2 and its downstream signal regulator p44/42 MAPK, STAT3 and AKT in HUVECs. One representative Western blot of three is presented. Each has the expression of β-actin as internal control. The full size blots were shown in the Supplemental Figure S5 online. (E) Cellular thermal shift assay showing VEGFR2 target engagement by YLT192 in intact HUVECs. One representative Western blot of two is presented. The full size blots were shown in the Supplemental Figure S6 online. […]
(§2) HUVECs were allowed to grow into full confluence in 24-well plates and then wounded by scratching with pipette tips and washed with PBS. […] Images were taken using a ZEISS digital microscope and invading cells were counted by manual counting. […]

[2] = tested on: HUVEC; assay: Transwell invasion assay; type: cell-based, human; settings: various concentrations; 24 hours; concentration-dependent
From the text: as §1
Figure 2 Effects of YLT192 on HUVECs proliferation, migration, invasion and tube formation. […] Cells were wounded by the pipette and then treated with various concentrations of compounds for 24 hours. Migrated cells were quantified by manual counting (50×). […] The bottom chambers of the transwells were filled with 600 μL EGM2 containing various growth factors while the top chambers were seeded with 4 × 10^4 HUVECs in EBM2 and treated with different concentrations of compounds for 24 hours. Cells invaded through the membrane were stained and quantified (100×). […] HUVECs were seeded on Matrigel layer and treated with different concentrations of compounds. HUVECs tube formation was assessed 6 hours later (50×). One representative experiment of three is shown. […]
as §2

[3] = tested on: HUVEC; assay: Capillary-like tube formation assay; type: cell-based, human; settings: designed concentrations; 6 hours; Matrigel
Experimental: To elucidate the possible mechanisms of angiogenesis inhibition, tube formation ability of ECs, which is a critical step in the process of angiogenesis, was assessed in HUVEC in vitro.
The anti-angiogenesis ability of YLT192 in vitro was evaluated using capillary tube formation assay as described previously. Briefly, 96-well plate was pre-incubated with Matrigel at 37°C for 45 minutes. Then HUVECs (2 × 10^4 cells) suspended in EGM2 medium were seeded onto the Matrigel. They were treated with various concentrations of YLT192. After 6 hours incubation at 37°C, tube formation was assessed with an OLYMPUS inverted digital camera in low power fields (50×). Vandetanib served as positive control. The assay was replicated 3 times.

[4] = cited from earlier work; for toxicities after single doses: rat, in vivo; for maximal tolerance dose (MTD): rats, ref http://www.accessdata.fda.gov/drugsatfda

Compound	HUVECs migration in wound healing assay [1]	invasion of HUVECs in transwell assay [2]	tube formation of HUVEC [3]	toxicities after single doses [4]	maximal tolerance dose (MTD) [4]
COc1cc2c(Nc3ccc(Br)cc3F)ncnc2cc1OCC1CCN(C)CC1 [Vandetanib, reference compound]	inhibited HUVECs migration	inhibted HUVECs invasion	inhibited HUVECs tube formation		
CNC(=O)c1cc(Oc2ccc(NC(=O)Nc3ccc(Cl)c(C(F)(F)F)c3)cc2)ccn1 [sorafenib]				toxicities in the gastrointestinal tract and liver	500 mg/kg
CCN(CC)CCNC(=O)c1c(C)[nH]c(/C=C2\C(=O)Nc3ccc(F)cc32)c1C [sunitinib]				toxicities in the gastrointestinal tract and liver	500 mg/kg
